Where two headings read alike, the source gives them in different places.
Molecular target: T1, Recombinant human cathepsin S (CatS) (Homo sapiens, UniProt P25774)
T1 construct: made in house
Test: Recombinant human cathepsin S (CatS) fluorogenic substrate inhibition assay
Format: biochemical
Method: Recombinant human cathepsin S (CatS) was expressed in the baculovirus system and purified in one step with a thiopropyl-sepharose column. […] The assay is run in 150 mM sodium acetate pH 5.0 containing 1.5 mM DTT and 150 mM NaCl. […] Measurements are taken every min for 20 min. The rate is calculated from the slope of the increase in fluorescence and the percent inhibition is calculated from this.

[1] = average of results obtained, substrate Z-Valine-Valine-Arginine-AMC 10 μM, pH 5.0, read-out: CatS IC50

T1 sequence (P25774 115-331): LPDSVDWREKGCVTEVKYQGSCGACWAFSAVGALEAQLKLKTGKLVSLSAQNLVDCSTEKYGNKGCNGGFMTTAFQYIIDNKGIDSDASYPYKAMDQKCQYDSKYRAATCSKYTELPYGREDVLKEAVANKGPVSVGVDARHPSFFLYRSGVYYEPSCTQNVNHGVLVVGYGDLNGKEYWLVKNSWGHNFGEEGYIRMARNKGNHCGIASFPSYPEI

Row | SMILES | IC50 [1] [nM] | IC50 [nM]
1 | CS(=O)(=O)N1CCc2c(c(-c3ccc(C(F)(F)F)c(CNC(=O)c4ccc(F)c(Cl)c4)c3)nn2CC(O)CN2CCCC2)C1 (centres unmarked) [Example 61, 3-Chloro-4-fluoro-N-{5-[1-(2-hydroxy-3-pyrrolidin-1-yl-propyl)-5-methanesulfonyl-4,5,6,7-tetrahydro-1H-pyrazolo[4,3-c]pyridin-3-yl]-2-trifluoromethyl-benzyl}-benzamide] | 190 | 
2 | CS(=O)(=O)N1CCc2c(c(-c3ccc(C(F)(F)F)c(CNC(=O)c4ccc(F)cc4)c3)nn2CC(O)CN2CCCC2)C1 (centres unmarked) [Example 57, 4-Fluoro-N-{5-[1-(2-hydroxy-3-pyrrolidin-1-yl-propyl)-5-methanesulfonyl-4,5,6,7-tetrahydro-1H-pyrazolo[4,3-c]pyridin-3-yl]-2-trifluoromethyl-benzyl}-benzamide] | 160 | 
3 | CS(=O)(=O)N1CCc2c(c(-c3ccc(C(F)(F)F)c(CNC(=O)c4ccc(F)cc4F)c3)nn2CC(O)CN2CCCC2)C1 (centres unmarked) [Example 101, 2,4-Difluoro-N-{5-[1-(2-hydroxy-3-pyrrolidin-1-yl-propyl)-5-methanesulfonyl-4,5,6,7-tetrahydro-1H-pyrazolo[4,3-c]pyridin-3-yl]-2-trifluoromethyl-benzyl}-benzamide] | 440 | 
4 | CS(=O)(=O)N1CCc2c(c(-c3ccc(Cl)c(CNC(=O)c4ccccc4)c3)nn2CC(O)CN2CCOCC2)C1 (centres unmarked) [Example 220, N-{2-Chloro-5-[1-(2-hydroxy-3-morpholin-4-yl-propyl)-5-methanesulfonyl-4,5,6,7-tetrahydro-1H-pyrazolo[4,3-c]pyridin-3-yl]-benzyl}-benzamide] | 650 | 
5 | CS(=O)(=O)N1CCc2c(c(-c3ccc(C(F)(F)F)c(CNC(=O)Oc4ccccc4)c3)nn2CCCN2CCC3(CCNC3=O)CC2)C1 [Example 148, (5-{5-Methanesulfonyl-1-[3-(1-oxo-2,8-diaza-spiro[4.5]dec-8-yl)-propyl]-4,5,6,7-tetrahydro-1H-pyrazolo[4,3-c]pyridin-3-yl}-2-trifluoromethyl-benzyl)-carbamic acid phenyl ester] |  | 200
6 | CC(=O)Nc1ccc(C(=O)NCc2cc(-c3nn(CC(O)CN4CCCC4)c4c3CN(S(C)(=O)=O)CC4)ccc2C(F)(F)F)cc1 (centres unmarked) [Example 240, 4-Acetylamino-N-{5-[1-(2-hydroxy-3-pyrrolidin-1-yl-propyl)-5-methanesulfonyl-4,5,6,7-tetrahydro-1H-pyrazolo[4,3-c]pyridin-3-yl]-2-trifluoromethyl-benzyl}-benzamide] | 970 | 
7 | CC(C)CC(=O)NCc1cc(-c2nn(CC(O)CN3CCC(N(C)C)CC3)c3c2CN(S(C)(=O)=O)CC3)ccc1C(F)(F)F (centres unmarked) [Example 247, N-(5-{1-[3-(4-Dimethylamino-piperidin-1-yl)-2-hydroxy-propyl]-5-methanesulfonyl-4,5,6,7-tetrahydro-1H-pyrazolo[4,3-c]pyridin-3-yl}-2-trifluoromethyl-benzyl)-3-methyl-butyramide] | 420 | 
8 | NC(=O)N1CCc2c(c(-c3ccc(C(F)(F)F)c(CNC(=O)c4ccc(F)cc4)c3)nn2CC(O)CN2CCC3(CCNC3=O)CC2)C1 (centres unmarked) [Example 9, 3-{3-[(4-Fluoro-benzoylamino)-methyl]-4-trifluoromethyl-phenyl}-1-[2-hydroxy-3-(1-oxo-2,8-diaza-spiro[4.5]dec-8-yl)-propyl]-1,4,6,7-tetrahydro-pyrazolo[4,3-c]pyridine-5-carboxylic acid amide] | 40 | 
9 | CS(=O)(=O)N1CCc2c(c(-c3ccc(C(F)(F)F)c(CNC(=O)c4ccc(F)cc4)c3)nn2CC(O)CN2CCC(C(=O)O)CC2)C1 (centres unmarked) [Example 90, 1-[3-(3-{3-[(4-Fluoro-benzoylamino)-methyl]-4-trifluoromethyl-phenyl}-5-methanesulfonyl-4,5,6,7-tetrahydro-pyrazolo[4,3-c]pyridin-1-yl)-2-hydroxy-propyl]-piperidine-4-carboxylic acid] | 150 | 
10 | CS(=O)(=O)N1CCc2c(c(-c3ccc(C(F)(F)F)c(CNC(=O)c4ccccc4Cl)c3)nn2CC(O)CN2CCCC2)C1 (centres unmarked) [Example 62, 2-Chloro-N-{5-[1-(2-hydroxy-3-pyrrolidin-1-yl-propyl)-5-methanesulfonyl-4,5,6,7-tetrahydro-1H-pyrazolo[4,3-c]pyridin-3-yl]-2-trifluoromethyl-benzyl}-benzamide] | 220 | 
11 | CS(=O)(=O)N1CCc2c(c(-c3ccc(C(F)(F)F)c(CNC(=O)C4CCCCCC4)c3)nn2CCCN2CCC3(CCNC3=O)CC2)C1 [Example 158, Cycloheptanecarboxylic acid 5-{5-methanesulfonyl-1-[3-(1-oxo-2,8-diaza-spiro[4.5]dec-8-yl)-propyl]-4,5,6,7-tetrahydro-1H-pyrazolo[4,3-c]pyridin-3-yl}-2-trifluoromethyl-benzylamide] | 280 | 
12 | CS(=O)(=O)N1CCc2c(c(-c3ccc(C(F)(F)F)c(CNC(=O)c4ccc(F)cc4)c3)nn2CC(O)CN2CC[C@@H](CO)C2)C1 (stereo partly drawn) [Example 95, (R)-4-Fluoro-N-(5-{1-[2-hydroxy-3-(3-hydroxymethyl-pyrrolidin-1-yl)-propyl]-5-methanesulfonyl-4,5,6,7-tetrahydro-1H-pyrazolo[4,3-c]pyridin-3-yl}-2-trifluoromethyl-benzyl)-benzamide] | 230 | 
13 | CS(=O)(=O)N1CCc2c(c(-c3ccc(Cl)c(CNC(=O)c4ccc(F)cc4)c3)nn2CC(O)CN2CCCC(O)C2)C1 (centres unmarked) [Example 74, N-(2-Chloro-5-{1-[2-hydroxy-3-(3-hydroxy-piperidin-1-yl)-propyl]-5-methanesulfonyl-4,5,6,7-tetrahydro-1H-pyrazolo[4,3-c]pyridin-3-yl}-benzyl)-4-fluoro-benzamide] | 300 | 
14 | CC(=O)NC1CCN(CC(O)Cn2nc(-c3ccc(C(F)(F)F)c(CNC(=O)C=C(C)C)c3)c3c2CCN(S(C)(=O)=O)C3)CC1 (centres unmarked) [Example 29, 3-Methyl-but-2-enoic acid 5-{1-[3-(4-acetylamino-piperidin-1-yl)-2-hydroxy-propyl]-5-methanesulfonyl-4,5,6,7-tetrahydro-1H-pyrazolo[4,3-c]pyridin-3-yl}-2-trifluoromethyl-benzylamide] | 10 | 
15 | CS(=O)(=O)N1CCc2c(c(-c3ccc(C(F)(F)F)c(CNC(=O)c4ccc(O)cc4)c3)nn2CC(O)CN2CCCC2)C1 (centres unmarked) [Example 156, 4-Hydroxy-N-{5-[1-(2-hydroxy-3-pyrrolidin-1-yl-propyl)-5-methanesulfonyl-4,5,6,7-tetrahydro-1H-pyrazolo[4,3-c]pyridin-3-yl]-2-trifluoromethyl-benzyl}-benzamide] | 260 | 
16 | CS(=O)(=O)N1CCc2c(c(-c3ccc(C(F)(F)F)c(CNC(=O)c4ccc(F)cc4)c3)nn2CCCN2CCC3(CCNC3=O)CC2)C1 [Example 41, 4-Fluoro-N-(5-{5-methanesulfonyl-1-[3-(1-oxo-2,8-diaza-spiro[4.5]dec-8-yl)-propyl]-4,5,6,7-tetrahydro-1H-pyrazolo[4,3-c]pyridin-3-yl}-2-trifluoromethyl-benzyl)-benzamide] | 40 | 
17 | CS(=O)(=O)N1CCc2c(c(-c3ccc(Cl)c(CNC(=O)c4ccc(F)cc4)c3)nn2CC(O)CN2CCC(C(F)(F)F)CC2)C1 (centres unmarked) [Example 15, N-(2-Chloro-5-{1-[2-hydroxy-3-(4-trifluoromethyl-piperidin-1-yl)-propyl]-5-methanesulfonyl-4,5,6,7-tetrahydro-1H-pyrazolo[4,3-c]pyridin-3-yl}-benzyl)-4-fluoro-benzamide] |  | 70
18 | CS(=O)(=O)N1CCc2c(c(-c3ccc(Cl)c(CNC(=O)c4cccs4)c3)nn2CCCN2CCCC2)C1 [Example 241, Thiophene-2-carboxylic acid 2-chloro-5-[5-methanesulfonyl-1-(3-pyrrolidin-1-yl-propyl)-4,5,6,7-tetrahydro-1H-pyrazolo[4,3-c]pyridin-3-yl]-benzylamide] | 970 | 
19 | CS(=O)(=O)N1CCc2c(c(-c3ccc(C(F)(F)F)c(CNC(=O)c4ccc(F)cc4)c3)nn2CC(O)CN2CCNCC2)C1 (centres unmarked) [Example 236, 4-Fluoro-N-{5-[1-(2-hydroxy-3-piperazin-1-yl-propyl)-5-methanesulfonyl-4,5,6,7-tetrahydro-1H-pyrazolo[4,3-c]pyridin-3-yl]-2-trifluoromethyl-benzyl}-benzamide] | 900 | 
20 | CC(C)=CC(=O)NCc1cc(-c2nn(CC(O)CN3CCOCC3)c3c2CN(S(C)(=O)=O)CC3)ccc1C(F)(F)F (centres unmarked) [Example 153, 3-Methyl-but-2-enoic acid 5-[1-(2-hydroxy-3-morpholin-4-yl-propyl)-5-methanesulfonyl-4,5,6,7-tetrahydro-1H-pyrazolo[4,3-c]pyridin-3-yl]-2-trifluoromethyl-benzylamide] | 140 | 
21 | CNC(=O)CCc1cc(-c2nn(CCCN3CCOCC3)c3c2CN(S(C)(=O)=O)CC3)ccc1Cl [Example 294, 3-{2-Chloro-5-[5-methanesulfonyl-1-(3-morpholin-4-yl-propyl)-4,5,6,7-tetrahydro-1H-pyrazolo[4,3-c]pyridin-3-yl]-phenyl}-N-methyl-propionamide] | 16500 | 
22 | CC(C)=CC(=O)NCc1cc(-c2nn(CC(O)CN3CCC(O)C3)c3c2CN(S(C)(=O)=O)CC3)ccc1C(F)(F)F (centres unmarked) [Example 32, 3-Methyl-but-2-enoic acid 5-{1-[2-hydroxy-3-(3-hydroxy-pyrrolidin-1-yl)-propyl]-5-methanesulfonyl-4,5,6,7-tetrahydro-1H-pyrazolo[4,3-c]pyridin-3-yl}-2-trifluoromethyl-benzylamide] | 270 | 
23 | COC1CCC(C(=O)NCc2cc(-c3nn(CC(O)CN4CCCC4)c4c3CN(S(C)(=O)=O)CC4)ccc2C(F)(F)F)CC1 (centres unmarked) [Example 186, 4-Methoxy-cyclohexanecarboxylic acid 5-[1-(2-hydroxy-3-pyrrolidin-1-yl-propyl)-5-methanesulfonyl-4,5,6,7-tetrahydro-1H-pyrazolo[4,3-c]pyridin-3-yl]-2-trifluoromethyl-benzylamide] | 3100 | 

Reference: US20090118274A1, “MONOCYCLIC AMINOPROPYL TETRAHYDRO-PYRAZOLO-PYRIDINE MODULATORS OF CATHEPSIN S” (priority 2007, published 2009)
